Experiment: GSH arylation rate constants (NMR; UV-vis for fast warheads)
Type: physicochemical
Design: key to rate constant (k) for the reaction with GSH / k: NR = no reaction
Conditions: for k: Table S8, rate constants obtained at pH = 7; for k change (vs ref): ratio to rate constant of 4q, acceleration (+) or deceleration (-)
Description: We employed nuclear magnetic resonance (NMR) and UV–vis to quantify the reactivity of our 2-SP derivatives and other representative electrophiles (Figure 2) against cysteine. NMR allowed straightforward determination of reaction rate constants through dual monitoring of the consumption of the warhead and formation of the product by integration of their respective NMR signals (Figures S1–S3). It simultaneously provided a direct readout on reaction specificity and hydrolytic stability of the warhead. All measurements were carried out in KPi buffer in the presence of 5% d^6-dmso, which is generally well-tolerated by a wide range of proteins in in vitro studies. N-acetylcysteine methylester (NACME) and L-glutathione (GSH) are useful model cysteine nucleophiles for in vitro studies of electrophilic agents.[32] Mixing reference electrophile 2-methylsulfonylpyrimidine (4q) with NACME or GSH in a 1:10 ratio (pseudo-first-order conditions) allowed extraction of accurate and reproducible second order rate constants (k).
Figure 3 In vitro determination of electrophilic reactivity of compounds. (A) NMR assay setup for warhead/GSH reaction rate constant determination and chemoselectivity monitoring, over a 6 h time scale. Purple bead = GSH. Hydrolytic stability was determined in the same way over 36 h. d^4-Trimethylsilylpropanoate (TMSP, blue box) was used as an internal standard for monitoring the warhead solubility. Second-order reaction rate constants (k) were obtained from their pseudo-first-order counterparts (k′), by time-dependent normalized integration of the disappearing warhead signals. […] (B) Experimental second-order rate constants (y axis, log10 scale) for the reaction of representative 2-SP derivatives (left, 11 out of ca. 40 examples) and previously reported heteroarylsulfones (right) with GSH in a KPi buffer, pH 7.0, 20 °C. All rate constants were calculated as an average of at least two independent measurements. Numerical values and standard deviations at both pH 7.0 and 6.5, along with a full list of 2-SPs and other electrophile types tested, are presented in Tables S2–S6 and Figure S4. The horizontal dashed line marks the reaction rate of 2-methylsulfonylpyrimidine at pH 7.0, as a reference when comparing with other reagents (see main text).
To establish an accurate structure–reactivity profile of 2-SP reagents, we systematically determined their reaction rate constants for the arylation of GSH by NMR, at pH 7.0 and 6.5. This was a prerequisite to (i) quantify the influence of substitution on reaction rates; (ii) accurately assess the tunability and chemoselectivity of 2-SPs for cysteine arylation; (iii) determine the influence of pH on the reaction rates to further inform on the precise reaction mechanism; and (iv) benchmark the overall performance of 2-SPs with those of previously reported fast reacting heteroarylsulfones and other common cysteine reactive warheads (Figure 2C,D).

[1] = pH 6.5, by NMR, KPi buffer, 5% DMSO-d6
[2] = pH 7.0, by NMR, KPi buffer, 5% DMSO-d6

SMILES	rate constant (k) for the reaction with GSH [1]	rate constant (k) for the reaction with GSH [2]	further results
Cc1cc(C)nc(Cl)n1 [1a]	NR	NR	
COc1ccnc(Cl)n1 [1b]	NR	NR	
Cc1ccnc(Cl)n1 [1c]	NR	NR	
O=C(O)c1ccnc(Cl)n1 [1d]	NR	NR	
Clc1nccc(-c2ccccc2)n1 [1e]	NR	NR	
COc1cc(OC)nc(Cl)n1 [1f]	NR	NR	
Nc1ccnc(Cl)n1 [1g]	NR	NR	
O=C(O)c1nc(Cl)ncc1Cl [1h]	NR	NR	
O=C(O)c1nc(Cl)ncc1Br [1i]	NR	NR	
NC(=O)c1ccnc(Cl)n1 [1j]	NR	NR	
COC(=O)c1ccnc(Cl)n1 [1k]	NR	NR	
FC(F)(F)c1ccnc(Cl)n1 [1l]	0.00045 M⁻¹ s⁻¹	0.001 ± 0.0005 M⁻¹ s⁻¹	
Nc1cnc(Cl)nc1 [1m]	NR	NR	
COc1cnc(Cl)nc1 [1n]	NR	NR	
Cc1cnc(Cl)nc1 [1o]	NR	NR	
Clc1ncc(-c2ccccc2)cn1 [1p]	NR	NR	
Clc1ncccn1 [1q]	NR	NR	reactivity with GSH (in words) (KPi buffer, up to 6 h): failed to induce observable arylation of GSH; k: NR
Fc1cnc(Cl)nc1 [1r]	NR	NR	
Clc1cnc(Cl)nc1 [1s]	Ca. 0.07 mM-1.s-1	Ca. 0.26 mM-1.s-1	
Clc1ncc(Br)cn1 [1t]	Ca. 0.025 mM-1.s-1	Ca. 0.15 mM-1.s-1	
O=C(O)c1cnc(Cl)nc1 [1v]	Ca. 0.14 mM-1.s-1	Ca. 0.65 mM-1.s-1	
O=[N+]([O-])c1cnc(Cl)nc1 [1w]	NR	NR	
COC(=O)c1cnc(Cl)nc1 [1y]	Ca. 11 mM-1.s-1	Ca. 55 mM-1.s-1	rate relative to 5-NO2-MSBT / nitro-MSBT (10) (in words) (in vitro): an order of magnitude
CSc1nc(C)cc(C)n1 [2a]	NR	NR	
COc1ccnc(SC)n1 [2b]	NR	NR	
CSc1nccc(C)n1 [2c]	NR	NR	
CSc1nccc(C(=O)O)n1 [2d]	NR	NR	

SMILES	rate constant (k) for the reaction with GSH [1]	rate constant (k) for the reaction with GSH [2]	further results
CSc1nccc(-c2ccccc2)n1 [2e]	NR	NR	
COc1cc(OC)nc(SC)n1 [2f]	NR	NR	
CSc1nccc(N)n1 [2g]	NR	NR	
CSc1ncc(Cl)c(C(=O)O)n1 [2h]	NR	NR	
CSc1ncc(Br)c(C(=O)O)n1 [2i]	NR	NR	
CSc1nccc(C(N)=O)n1 [2j]	NR	NR	
COC(=O)c1ccnc(SC)n1 [2k]	NR	NR	
CSc1nccc(C(F)(F)F)n1 [2l]	NR	NR	
CSc1ncc([N+](=O)[O-])cn1 [2m]	NR	NR	
COc1cnc(SC)nc1 [2n]	NR	NR	
CSc1ncc(C)cn1 [2o]	NR	NR	
CSc1ncccn1 [2q]	NR	NR	k: NR
CSc1ncc(F)cn1 [2r]	NR	NR	
CSc1ncc(Cl)cn1 [2s]	NR	NR	
CSc1ncc(Br)cn1 [2t]	NR	NR	
CSc1ncc(C(F)(F)F)cn1 [2x]	NR	NR	
COC(=O)c1cnc(SC)nc1 [2y]	NR	Ca. 0.020 mM-1.s-1	
CC(C)(C)Sc1ncccn1 [3a]		NR	
CCCCSc1ncccn1 [3c]		NR	
c1ccc(Sc2ncccn2)cc1 [3d]		NR	
CS(=O)(=O)c1ncc(Cl)c(C(=O)O)n1 [4h]			k change (vs ref) (pH 7.0): +7 fold
CS(=O)(=O)c1ncc(F)cn1 [4r]	Multiple	Multiple	
CS(=O)(=O)c1nc2ccc([N+](=O)[O-])cc2s1 [compound 10, 2-(methylsulfonyl)-6-nitrobenzo[d]thiazole, reference compound]			rate constant (k) for the reaction with GSH (pH 6.5, measured by UV titrations): 290 ± 130 M⁻¹ s⁻¹; second order rate constant k with GSH (pH 7.0, KPi buffer): ≈ 1200 M^–1 s^–1; k change (vs ref) (pH 7.0): +44,000 fold
Fc1ncccn1 [compound 13, reference compound]		NR	k: NR
Brc1ncccn1 [compound 14, reference compound]			k: NR
Oc1ncccn1 [compound 16, reference compound]		NR	
Nc1ncccn1 [compound 17, reference compound]		NR	
